The results in this text go back to publication PMC4450258 (Molecular neurobiology, 2014).

The experiment addresses T1, Sterol carrier protein 2 (SCP-2) (Homo sapiens, UniProt P22307).
T1 sequence (P22307 425-547): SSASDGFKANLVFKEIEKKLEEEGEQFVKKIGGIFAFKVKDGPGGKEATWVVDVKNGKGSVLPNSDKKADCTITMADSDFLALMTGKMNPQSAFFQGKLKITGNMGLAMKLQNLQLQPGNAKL
In kind it is biochemical.

For `CCCCC/C=C\C/C=C\C/C=C\C/C=C\CCCC(=O)NCCO` [AEA, N-arachidonylethanolamine], the “inhibition of recombinant SCP-2-mediated [14C]cholesterol transfer from SUVs to” value is recorded as ~ 50 µM.
